# Experimental data taken from patent US6977296B2, “HUMAN CERVICAL CANCER SUPPRESSOR PROTEIN, POLYNUCLEOTIDE ENCODING THE PROTEIN, CELL TRANSFORMED WITH THE POLYNUCLEOTIDE AND METHOD FOR SUPPRESSING PROLIFERATION OF CANCER CELL USING THE EXPRESSION VECTOR” (priority 2000, dated 2005).
# Test system: HeLa cervical cancer cells
# Experiment: Adriamycin or UVC-triggered apoptosis: cell cycle kinetic analysis (PI, FACS)
# Format: cell-based, human
# Experimental: To examine whether a drug or UV light triggers apoptosis of the cells transfected with HCCS-1 gene, the cell cycle kinetic analysis was conducted as described by Hedley, D. W.(in Flow Cytometry, DNA Analysis from Paraffin-embedded Blocks (eds Darzynkiewicz, Z. & Crissman, H. A.) 139 (Academic Press, San Diego, 1990)).
# HeLa cells transfected with HCCS-1 gene obtained in Step 2 of Example 4 and parental wild-type cells were cultured until mid-log phase and incubated in Waymouth MB 752/1 medium containing 0.5% bovine calf serum for 36 hours to arrest the cell growth at G0/G1 phase. The cells were treated with adriamycin (0.1 and 2 μg/ml, respectively) or UVC (50 J/m^2) and then the cells were cultured in Waymouth MB 752/1 medium containing 0.5% bovine calf to resume the cell growth. After 24 hours, HeLa cells were harvested, treated with trypsin, and fixed in 70% ethanol.
# 50 μg/ml of PI staining solution (Sigma) and 100 units/ml of RNase A (Boerhinger Mannheim) were added to 2×10^6 of the fixed cells. After incubation for 1 hour, the cellular DNA content was determined by fluorescence analysis at 488 nm using a FACS Caliber (Becton Dickinson). A minimum of 1×10^4 cells per sample was analyzed with Modfit 5.2 software.
structure (smiles),measurement,setting,value
COc1cccc2c1C(=O)c1c(O)c3c(c(O)c1C2=O)C[C@@](O)(C(=O)CO)C[C@@H]3O[C@H]1C[C@H](N)[C@H](O)[C@H](C)O1 [adriamycin],differences in cell populations with respect to cell cycle progression between wild-type and HCCS-1-transfected HeLa cells,"adriamycin 0.1 and 2 μg/ml, 24 hours",no significant differences
same,cells in apoptotic sub G0/G1-phase,"wild-type HeLa cells, 24 hours after adriamycin 0.1 and 2 μg/ml",few cells remained in apoptotic sub G0/G1-phase
